# Assay results from patent US6737383B1, “Herbicidal oxadiazolidines” (priority 1999, dated 2004).
# What was measured:
# [1] = tested on: giant foxtail; assay: Test B pre/postemergence giant foxtail; assay type: in vivo, Setaria faberii
# Procedure, shortened: (§1)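 Test chemicals in a non-phytotoxic solvent mixture with surfactant were sprayed preemergence onto planted seeds and postemergence onto plants 2 to 18 cm tall (1- to 4-leaf stage). After twelve to sixteen days in a greenhouse, injury was visually rated against untreated controls from 0 (no effect) to 10 (complete control).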
# [2] = tested on: surinam grass; assay: Test B pre/postemergence surinam grass; assay type: in vivo, Brachiaria decumbens
# Procedure, shortened: as §1
# [3] = tested on: wheat; assay: Test B pre/postemergence wheat; assay type: in vivo, Triticum aestivum
# Procedure, shortened: as §1
# [4] = tested on: pigweed; assay: Test B pre/postemergence pigweed; assay type: in vivo, Amaranthus retroflexus
# Procedure, shortened: as §1
# [5] = tested on: velvetleaf; assay: Test B pre/postemergence velvetleaf; assay type: in vivo, Abutilon theophrasti
# Procedure, shortened: as §1
# [6] = tested on: cocklebur; assay: Test B pre/postemergence cocklebur; assay type: in vivo, Xanthium strumarium
# Procedure, shortened: as §1
# [7] = tested on: sugar beet; assay: Test B pre/postemergence sugar beet; assay type: in vivo, Beta vulgaris
# Procedure, shortened: as §1
# [8] = tested on: crabgrass; assay: Test B pre/postemergence crabgrass; assay type: in vivo, Digitaria sanguinalis
# Procedure, shortened: as §1
# [9] = tested on: rape; assay: Test B pre/postemergence rape; assay type: in vivo, Brassica napus
# Procedure, shortened: as §1
# [10] = tested on: corn; assay: Test B pre/postemergence corn; assay type: in vivo, Zea mays
# Procedure, shortened: as §1
# [11] = tested on: bedstraw; assay: Test B pre/postemergence bedstraw; assay type: in vivo, Galium aparine; details: Preemergence; for Bedstraw plant response rating: scale 0 to 10, 0 is no effect, 10 is complete control
# Procedure, shortened: as §1
# [12] = tested on: soybean; assay: Test B pre/postemergence soybean; assay type: in vivo, Glycine max
# Procedure, shortened: as §1
# [13] = tested on: morningglory; assay: Test B pre/postemergence morningglory; assay type: in vivo, Ipomoea hederacea
# Procedure, shortened: as §1
# [14] = tested on: purple nutsedge; assay: Test B pre/postemergence purple nutsedge; assay type: in vivo, Cyperus rotundus
# Procedure, shortened: as §1
# [15] = tested on: blackgrass; assay: Test B pre/postemergence blackgrass; assay type: in vivo, Alopecurus myosuroides
# Procedure, shortened: as §1
# [16] = tested on: wild oat; assay: Test B pre/postemergence wild oat; assay type: in vivo, Avena fatua
# Procedure, shortened: as §1
# [17] = Postemergence, Rate 62 g/ha, scale of 0 to 10, 0 is no effect, 10 is complete control
# [18] = Postemergence, Rate 125 g/ha, scale 0 to 10, 0 is no effect, 10 is complete control
# [19] = Postemergence, Rate 500 g/ha, scale 0 to 10, 0 is no effect, 10 is complete control
# [20] = Preemergence, Rate 62 g/ha, scale of 0 to 10 where 0 is no effect and 10 is complete control
# [21] = Preemergence, Rate 125 g/ha, scale 0 to 10, 0 is no effect, 10 is complete control
# [22] = Preemergence, Rate 500 g/ha, scale of 0 to 10 where 0 is no effect and 10 is complete control
# [23] = Rate 250 g/ha, Postemergence, scale of 0 to 10 where 0 is no effect and 10 is complete control
smiles,measurement,setting,value
CC(C)N(C(=O)n1oc(=O)n(COCc2ccccc2)c1=O)c1ccc(F)cc1F [Compound 520],Giant foxtail plant response rating,[1]; [17],2
same,Giant foxtail plant response rating,[1]; [18],4
same,"Plant response rating, Giant foxtail",[1]; [19],9
same,"Plant response rating, Giant foxtail",[1]; [20],9
same,Giant foxtail plant response rating,[1]; [21],10
same,Giant foxtail plant response rating (0 to 10 scale),"[1]; Preemergence, Rate 250 g/ha",10
same,Giant foxtail plant response rating,[1]; [22],10
same,"Plant response rating, Giant foxtail",[1]; [23],4
same,B. signalgrass plant response rating,[2]; [17],0
same,B. signalgrass plant response rating,[2]; [18],0
same,"Plant response rating, B. signalgrass",[2]; [19],2
same,"Plant response rating, B. signalgrass",[2]; [20],0
same,B. signalgrass plant response rating,[2]; [21],0
same,"B. signalgrass plant response rating (0 to 10 scale, 0 is no effect, 10 is complete control)","[2]; Preemergence, Rate 250 g/ha",0
same,B. signalgrass plant response rating,"[2]; Preemergence, Rate 500 g/ha, scale 0 to 10, 0 is no effect, 10 is complete control",0
same,"Plant response rating, B. signalgrass",[2]; [23],0
same,Wheat plant response rating,[3]; [17],0
same,Wheat plant response rating,[3]; [18],0
same,"Plant response rating, Wheat",[3]; [19],0
same,"Plant response rating, Wheat",[3]; [20],0
same,Wheat plant response rating,[3]; [21],0
same,Wheat plant response rating (0 to 10 scale),"[3]; Preemergence, Rate 250 g/ha",0
same,Wheat plant response rating,[3]; [22],0
same,"Plant response rating, Wheat",[3]; [23],0
same,Redroot pigweed plant response rating,[4]; [17],0
same,Redroot pigweed plant response rating,[4]; [18],3
same,"Plant response rating, Redroot pigweed",[4]; [19],0
same,"Plant response rating, Redroot pigweed",[4]; [20],0
same,Redroot pigweed plant response rating,[4]; [21],0
same,Redroot pigweed plant response rating (0 to 10 scale),"[4]; Preemergence, Rate 250 g/ha",0
same,Redroot pigweed plant response rating,[4]; [22],0
same,Velvetleaf plant response rating,[5]; [17],3
same,Velvetleaf plant response rating,[5]; [18],4
same,"Plant response rating, Velvetleaf",[5]; [19],6
same,"Plant response rating, Velvetleaf",[5]; [20],0
same,Velvetleaf plant response rating,[5]; [21],0
same,Velvetleaf plant response rating (0 to 10 scale),"[5]; Preemergence, Rate 250 g/ha",0
same,Velvetleaf plant response rating,[5]; [22],0
same,"Plant response rating, Velvetleaf",[5]; [23],4
same,Cocklebur plant response rating,[6]; [17],0
same,Cocklebur plant response rating,[6]; [18],0
same,"Plant response rating, Cocklebur",[6]; [19],0
same,"Plant response rating, Cocklebur",[6]; [20],0
same,Cocklebur plant response rating,[6]; [21],0
same,Cocklebur plant response rating (0 to 10 scale),"[6]; Preemergence, Rate 250 g/ha",0
same,Cocklebur plant response rating,[6]; [22],0
same,"Plant response rating, Cocklebur",[6]; [23],0
same,Sugarbeets plant response rating,[7]; [17],0
same,Sugarbeets plant response rating,[7]; [18],0
same,"Plant response rating, Sugarbeets",[7]; [19],2
same,"Plant response rating, Sugarbeets",[7]; [20],0
same,Sugarbeets plant response rating,[7]; [21],0
same,Sugarbeets plant response rating (0 to 10 scale),"[7]; Preemergence, Rate 250 g/ha",0
same,Sugarbeets plant response rating,[7]; [22],0
same,"Plant response rating, Sugarbeets",[7]; [23],0
same,Crabgrass plant response rating,[8]; [17],2
same,Crabgrass plant response rating,[8]; [18],3
same,"Plant response rating, Crabgrass",[8]; [19],9
same,"Plant response rating, Crabgrass",[8]; [20],9
same,Crabgrass plant response rating,[8]; [21],9
same,Crabgrass plant response rating (0 to 10 scale),"[8]; Preemergence, Rate 250 g/ha",10
same,Crabgrass plant response rating,[8]; [22],10
same,"Plant response rating, Crabgrass",[8]; [23],4
same,Rape plant response rating,[9]; [17],0
same,Rape plant response rating,[9]; [18],0
same,"Plant response rating, Rape",[9]; [19],9
same,"Plant response rating, Rape",[9]; [20],0
same,Rape plant response rating,[9]; [21],0
same,Rape plant response rating (0 to 10 scale),"[9]; Preemergence, Rate 250 g/ha",0
same,Rape plant response rating,[9]; [22],0
same,"Plant response rating, Rape",[9]; [23],0
same,Corn plant response rating,[10]; [17],0
same,Corn plant response rating,[10]; [18],0
same,"Plant response rating, Corn",[10]; [19],0
same,"Plant response rating, Corn",[10]; [20],0
same,Corn plant response rating,[10]; [21],0
same,Corn plant response rating (0 to 10 scale),"[10]; Preemergence, Rate 250 g/ha",0
same,Corn plant response rating,[10]; [22],0
same,"Plant response rating, Corn",[10]; [23],0
same,"Plant response rating, Bedstraw","[11]; Rate 62 g/ha, scale of 0 to 10 where 0 is no effect and 10 is complete control",0
same,Bedstraw plant response rating,[11]; Rate 125 g/ha,0
same,Bedstraw plant response rating (0 to 10 scale),[11]; Rate 250 g/ha,0
same,Bedstraw plant response rating,[11]; Rate 500 g/ha,0
same,Soybean plant response rating,[12]; [17],2
same,Soybean plant response rating,[12]; [18],4
same,"Plant response rating, Soybean",[12]; [19],4
same,"Plant response rating, Soybean",[12]; [20],0
same,Soybean plant response rating,[12]; [21],0
same,Soybean plant response rating (0 to 10 scale),"[12]; Preemergence, Rate 250 g/ha",0
same,Soybean plant response rating,[12]; [22],0
same,"Plant response rating, Soybean",[12]; [23],4
same,Morningglory plant response rating,[13]; [17],3
same,Morningglory plant response rating,[13]; [18],4
same,"Plant response rating, Morningglory",[13]; [19],10
same,"Plant response rating, Morningglory",[13]; [20],0
same,Morningglory plant response rating,[13]; [21],0
same,Morningglory plant response rating (0 to 10 scale),"[13]; Preemergence, Rate 250 g/ha",0
same,Morningglory plant response rating,[13]; [22],0
same,"Plant response rating, Morningglory",[13]; [23],4
same,Nutsedge plant response rating,[14]; [17],0
same,Nutsedge plant response rating,[14]; [18],0
same,"Plant response rating, Nutsedge",[14]; [19],0
same,"Plant response rating, Nutsedge",[14]; [20],0
same,Nutsedge plant response rating,[14]; [21],0
same,Nutsedge plant response rating (0 to 10 scale),"[14]; Preemergence, Rate 250 g/ha",0
same,Nutsedge plant response rating,[14]; [22],0
same,"Plant response rating, Nutsedge",[14]; [23],0
same,Blackgrass plant response rating,[15]; [17],0
same,Blackgrass plant response rating,[15]; [18],0
same,"Plant response rating, Blackgrass",[15]; [19],6
same,"Plant response rating, Blackgrass",[15]; [20],0
same,Blackgrass plant response rating,[15]; [21],0
same,Blackgrass plant response rating (0 to 10 scale),"[15]; Preemergence, Rate 250 g/ha",0
same,Blackgrass plant response rating,[15]; [22],0
same,"Plant response rating, Blackgrass",[15]; [23],0
same,Wild oats plant response rating,[16]; [17],0
same,Wild oats plant response rating,[16]; [18],0
same,"Plant response rating, Wild oats",[16]; [19],0
same,"Plant response rating, Wild oats",[16]; [20],0
same,Wild oats plant response rating,[16]; [21],0
same,Wild oats plant response rating (0 to 10 scale),"[16]; Preemergence, Rate 250 g/ha",0
same,Wild oats plant response rating,[16]; [22],0
same,"Plant response rating, Wild oats",[16]; [23],0
